These results are taken from patent US10894784B2, “Heteroarylbenzimidazole compounds” (BAYER PHARMA AKTIENGESELLSCHAFT, priority 2015, dated 2021).

For the first assay, the target named is TBK1 (Homo sapiens (Human), UniProt Q9UHD2). Kind of assay: TBK1 low ATP kinase assay (in vitro assay 1). It counts as biochemical. Conditions: TBK1 low ATP kinase assay IC50, in vitro assay 1.
Sequence of TBK1 (Q9UHD2 whole entry): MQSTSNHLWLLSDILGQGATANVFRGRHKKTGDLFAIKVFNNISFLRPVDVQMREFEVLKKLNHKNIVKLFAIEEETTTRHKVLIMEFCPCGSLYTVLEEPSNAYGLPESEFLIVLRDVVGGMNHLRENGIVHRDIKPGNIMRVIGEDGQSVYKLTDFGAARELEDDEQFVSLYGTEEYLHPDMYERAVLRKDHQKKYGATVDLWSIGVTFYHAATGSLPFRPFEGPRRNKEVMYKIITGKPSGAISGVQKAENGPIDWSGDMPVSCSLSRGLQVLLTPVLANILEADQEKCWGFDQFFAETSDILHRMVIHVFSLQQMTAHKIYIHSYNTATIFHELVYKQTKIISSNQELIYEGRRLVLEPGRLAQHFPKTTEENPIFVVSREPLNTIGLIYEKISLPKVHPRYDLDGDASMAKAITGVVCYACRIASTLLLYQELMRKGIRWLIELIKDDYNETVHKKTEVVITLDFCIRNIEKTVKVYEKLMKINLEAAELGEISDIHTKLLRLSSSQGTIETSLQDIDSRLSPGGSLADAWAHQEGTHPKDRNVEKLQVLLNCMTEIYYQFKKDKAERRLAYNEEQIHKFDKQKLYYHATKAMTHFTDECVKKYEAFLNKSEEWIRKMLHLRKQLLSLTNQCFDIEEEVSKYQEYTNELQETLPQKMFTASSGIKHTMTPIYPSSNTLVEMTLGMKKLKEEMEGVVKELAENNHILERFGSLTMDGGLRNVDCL
Usually IC50 stands for the concentration that gives 50% inhibition. `Cc1cc(-c2ccc3nc(Nc4cc(C(C)N5CCN(C(=O)CC(F)(F)F)CC5)ccn4)[nH]c3c2)ncn1` (racemic) [Example 30.02.01, (rac)-3,3,3-trifluoro-1-{4-[1-(2-{[6-(6-methylpyrimidin-4-yl)-1H-benzimidazol-2-yl]amino}pyridin-4-yl)ethyl]piperazin-1-yl}propan-1-one] had an IC50 of 4.46 nM.

Staying with this assay, now noted: in vitro assay 1, read-out: TBK1 low ATP kinase assay IC50.
With `COc1cnc(Cl)nc1-c1ccc2nc(Nc3cc(CN4CCN(C(=O)OC(C)(C)C)CC4)ccn3)[nH]c2c1` [Example 63.01.01, tert-butyl 4-[(2-{[6-(2-chloro-5-methoxypyrimidin-4-yl)-1H-benzimidazol-2-yl]amino}pyridin-4-yl)methyl]piperazine-1-carboxylate], the IC50 turned out to be 36.4 nM.

On to `CC(C)Cc1noc(-c2ccc3nc(Nc4cc(CN5CCN(C(=O)CC(F)(F)F)CC5)ccn4)[nH]c3c2)n1` [Example 18.01, 3,3,3-trifluoro-1-(4-{[2-({6-[3-(2-methylpropyl)-1,2,4-oxadiazol-5-yl]-1H-benzimidazol-2-yl}amino)pyridin-4-yl]methyl}piperazin-1-yl)propan-1-one], for which the IC50 turned out to be 72.4 nM.

With `Cc1noc(-c2ccc3nc(Nc4cc(CN5CCN(c6cncc(Cl)n6)CC5)ccn4)[nH]c3c2)n1` [Example 101.29, N-(4-{[4-(6-chloropyrazin-2-yl)piperazin-1-yl]methyl}pyridin-2-yl)-6-(3-methyl-1,2,4-oxadiazol-5-yl)-1H-benzimidazol-2-amine], the IC50 is 450 nM.

On to `CSc1ncc(-c2ccc3nc(Nc4cc(CN5CCN(C(=O)CC6CC6)CC5)ccn4)[nH]c3c2)cn1` [Example 45.05.02, 2-cyclopropyl-1-(4-{[2-({6-[2-(methylsulfanyl)pyrimidin-5-yl]-1H-benzimidazol-2-yl}amino)pyridin-4-yl]methyl}piperazin-1-yl)ethanone], for which the IC50 worked out at 1020 nM.

With `O=C(CC(F)(F)F)N1CCN(Cc2ccnc(Nc3nc4ccc(-c5ccnc(N6CCOCC6)c5)cc4[nH]3)c2)CC1` [Example 134.02, 3,3,3-trifluoro-1-(4-{[2-({6-[2-(morpholin-4-yl)pyridin-4-yl]-1H-benzimidazol-2-yl}amino)pyridin-4-yl]methyl}piperazin-1-yl)propan-1-one], the half-maximal inhibitory concentration (IC50) is 11 nM.

As to `COc1cncnc1-c1ccc2nc(Nc3cc(C(C)N4CCN(C(=O)CC5CC5)CC4)ccn3)[nH]c2c1` (single isomer, unassigned) [Example 35.03.02.B, 2-cyclopropyl-1-{4-[(1S or 1R)-1-(2-{[6-(5-methoxypyrimidin-4-yl)-1H-benzimidazol-2-yl]amino}pyridin-4-yl)ethyl]piperazin-1-yl}ethanone], the IC50 came out at 32.8 nM.

For `O=C(C1CC1)N1CCN(Cc2ccnc(Nc3nc4ccc(-c5nc(Cc6ccccc6)no5)cc4[nH]3)c2)CC1` [Example 21.01, {4-[(2-{[6-(3-benzyl-1,2,4-oxadiazol-5-yl)-1H-benzimidazol-2-yl]amino}pyridin-4-yl)methyl]piperazin-1-yl}(cyclopropyl)methanone], the IC50 was 193 nM.

As to `COc1cncnc1-c1ccc2nc(Nc3cc(C(C)N4CCN(C(=O)CC5CC5)CC4)ccn3)[nH]c2c1` (racemic) [Example 35.02.02, (rac)-2-cyclopropyl-1-{4-[1-(2-{[6-(5-methoxypyrimidin-4-yl)-1H-benzimidazol-2-yl]amino}pyridin-4-yl)ethyl]piperazin-1-yl}ethanone], the concentration for half-maximal inhibition (IC50) came to 11.5 nM.

In the case of `Cc1cc(-c2ccc3nc(Nc4cc(C(C)N5CCN(C(=O)C6CC6)CC5)ccn4)[nH]c3c2)ncn1` (racemic) [Example 30.02.03, (rac)-cyclopropyl{4-[1-(2-{[6-(6-methylpyrimidin-4-yl)-1H-benzimidazol-2-yl]amino}pyridin-4-yl)ethyl]piperazin-1-yl}methanone], the IC50 worked out at 3.73 nM.

Take `Cc1cc(-c2ccc3nc(Nc4cc(CN5CCN(C(=O)CC(F)(F)F)CC5)ccn4)[nH]c3c2)cc(C#N)n1` [Example 136.02, 6-methyl-4-{2-[(4-{[4-(3,3,3-trifluoropropanoyl)piperazin-1-yl]methyl}pyridin-2-yl)amino]-1H-benzimidazol-6-yl}pyridine-2-carbonitrile]: the IC50 amounted to 38 nM.

As to `COc1c(-c2ccc3nc(Nc4cc(C(C)N5CCN(C(=O)C6CC6)CC5)ccn4)[nH]c3c2)ncnc1N1CC(F)(F)C1` (single isomer, unassigned) [Example 113.03, cyclopropyl(4-{(1R or 1S)-1-[2-({6-[6-(3,3-difluoroazetidin-1-yl)-5-methoxypyrimidin-4-yl]-1H-benzimidazol-2-yl}amino)pyridin-4-yl]ethyl}piperazin-1-yl)methanone], the half-inhibitory concentration (IC50) worked out at 1.1 nM.

`Cn1ccc(-c2ccc3nc(Nc4cc(CN5CCN(C(=O)C6CC6)CC5)ccn4)[nH]c3c2)n1` [Example 40.03, cyclopropyl{4-[(2-{[6-(1-methyl-1H-pyrazol-3-yl)-1H-benzimidazol-2-yl]amino}pyridin-4-yl)methyl]piperazin-1-yl}methanone]: the IC50 came out at 988 nM.

Consider `COc1cc(-c2ccc3nc(Nc4cc(CN5CCN(C(=O)CC(F)(F)F)CC5)ccn4)[nH]c3c2)nc(C)n1` [Example 176.02, 3,3,3-trifluoro-1-{4-[(2-{[6-(6-methoxy-2-methylpyrimidin-4-yl)-1H-benzimidazol-2-yl]amino}pyridin-4-yl)methyl]piperazin-1-yl}propan-1-one], for which the IC50 was found to be 3580 nM.

Turning to `CC(O)c1cc(-c2ccc3nc(Nc4cc(CN5CCN(C(=O)CC(F)(F)F)CC5)ccn4)[nH]c3c2)ncn1` (racemic) [Example 97.02, (rac)-3,3,3-trifluoro-1-[4-({2-[(6-{6-[1-hydroxyethyl]pyrimidin-4-yl}-1H-benzimidazol-2-yl)amino]pyridin-4-yl}methyl)piperazin-1-yl]propan-1-one], the IC50 stood at 18 nM.

Consider `CSc1cc(-c2ccc3nc(Nc4cc(CN5CCN(C(=O)CC(F)(F)F)CC5)ccn4)[nH]c3c2)ncn1` [Example 95.01, 3,3,3-trifluoro-1-(4-{[2-({6-[6-(methylsulfanyl)pyrimidin-4-yl]-1H-benzimidazol-2-yl}amino)pyridin-4-yl]methyl}piperazin-1-yl)propan-1-one], for which the 50% inhibitory concentration (IC50) came out at 6.6 nM.

On to `COc1ccncc1-c1ccc2nc(Nc3cc(CN4CCN(C(=O)C5CC5)CC4)ccn3)[nH]c2c1` [Example 14.03, cyclopropyl{4-[(2-{[6-(4-methoxypyridin-3-yl)-1H-benzimidazol-2-yl]amino}pyridin-4-yl)methyl]piperazin-1-yl}methanone], for which the IC50 came to 550 nM.

For `CC(C)Cc1nc(-c2ccc3nc(Nc4cc(CN5CCN(C(=O)OC(C)(C)C)CC5)ccn4)[nH]c3c2)n(C)n1` [Example 42.01, tert-butyl 4-{[2-({6-[1-methyl-3-(2-methylpropyl)-1H-1,2,4-triazol-5-yl]-1H-benzimidazol-2-yl}amino)pyridin-4-yl]methyl}piperazine-1-carboxylate], the concentration for half-maximal inhibition (IC50) was determined as 577 nM.

In the case of `CC(c1ccnc(Nc2nc3ccc(-c4cc(N5CCOCC5)ncn4)cc3[nH]2)c1)N1CCN(C(=O)OC(C)(C)C)CC1` (single isomer, unassigned) [Example 118.01, tert-butyl 4-{(1R or 1S)-1-[2-({6-[6-(morpholin-4-yl)pyrimidin-4-yl]-1H-benzimidazol-2-yl}amino)pyridin-4-yl]ethyl}piperazine-1-carboxylate], the concentration for half-maximal inhibition (IC50) is 7.9 nM.

Consider `CC(c1ccnc(Nc2nc3ccc(-c4cc(N5CC(C(F)(F)F)C5)ncn4)cc3[nH]2)c1)N1CCN(C(=O)CC(F)(F)F)CC1` (single isomer, unassigned) [Example 164.02, 3,3,3-trifluoro-1-{4-[(1R or 1S)-1-{2-[(6-{6-[3-(trifluoromethyl)azetidin-1-yl]pyrimidin-4-yl}-1H-benzimidazol-2-yl)amino]pyridin-4-yl}ethyl]piperazin-1-yl}propan-1-one], for which the half-maximal inhibitory concentration (IC50) amounted to 0.943 nM.

In the case of `CN(C)c1nccnc1-c1ccc2nc(Nc3cc(CN4CCN(C(=O)C5CC5)CC4)ccn3)[nH]c2c1` [Example 196.03, cyclopropyl(4-{[2-({6-[3-(dimethylamino)pyrazin-2-yl]-1H-benzimidazol-2-yl}amino)pyridin-4-yl]methyl}piperazin-1-yl)methanone], the IC50 turned out to be 1420 nM.

In the case of `CN(C)c1cc(-c2ccc3nc(Nc4cc(CN5CCN(C(=O)OC(C)(C)C)CC5)ccn4)[nH]c3c2)ccn1` [Example 135.01, tert-butyl 4-{[2-({6-[2-(dimethylamino)pyridin-4-yl]-1H-benzimidazol-2-yl}amino)pyridin-4-yl]methyl}piperazine-1-carboxylate], the concentration for half-maximal inhibition (IC50) was 71 nM.

With `CC(c1ccnc(Nc2nc3ccc(-c4ccncn4)cc3[nH]2)c1)N1CCN(C(=O)CC(F)(F)F)CC1` (single isomer, unassigned) [Example 23.05.02.A, 3,3,3-trifluoro-1-{4-[(1R or 1S)-1-(2-{[6-(pyrimidin-4-yl)-1H-benzimidazol-2-yl]amino}pyridin-4-yl)ethyl]piperazin-1-yl}propan-1-one], the IC50 was determined as 8.23 nM.

Take `CC(=O)N1CCN(Cc2ccnc(Nc3nc4ccc(-c5ncnc(C)c5C)cc4[nH]3)c2)CC1` [Example 32.03, 1-{4-[(2-{[6-(5,6-dimethylpyrimidin-4-yl)-1H-benzimidazol-2-yl]amino}pyridin-4-yl)methyl]piperazin-1-yl}ethanone]: the half-inhibitory concentration (IC50) is 5190 nM.

With `O=C(CC(F)(F)F)N1CCN(Cc2ccnc(Nc3nc4ccc(-c5cc(NCC6CC6)ncn5)cc4[nH]3)c2)CC1` [Example 142.02, 1-[4-({2-[(6-{6-[(cyclopropylmethyl)amino]pyrimidin-4-yl}-1H-benzimidazol-2-yl)amino]pyridin-4-yl}methyl)piperazin-1-yl]-3,3,3-trifluoropropan-1-one], the half-inhibitory concentration (IC50) was 6.6 nM.

`CN(CC(F)(F)F)c1cc(-c2ccc3nc(Nc4cc(CN5CCN(C(=O)CC(F)(F)F)CC5)ccn4)[nH]c3c2)ncn1` [Example 146.02, 3,3,3-trifluoro-1-[4-({2-[(6-{6-[methyl(2,2,2-trifluoroethyl)amino]pyrimidin-4-yl}-1H-benzimidazol-2-yl)amino]pyridin-4-yl}methyl)piperazin-1-yl]propan-1-one]: the IC50 came to 9.8 nM.
